The molecules below were run against PI3Kgamma (Homo sapiens (Human), UniProt P48736) (assay: Biochemical assay PI3Kgamma (Adapta TR-FRET)). Details: read-out: PI3Kg/IC50.
Sequence of PI3Kgamma (P48736 whole entry, species assumed): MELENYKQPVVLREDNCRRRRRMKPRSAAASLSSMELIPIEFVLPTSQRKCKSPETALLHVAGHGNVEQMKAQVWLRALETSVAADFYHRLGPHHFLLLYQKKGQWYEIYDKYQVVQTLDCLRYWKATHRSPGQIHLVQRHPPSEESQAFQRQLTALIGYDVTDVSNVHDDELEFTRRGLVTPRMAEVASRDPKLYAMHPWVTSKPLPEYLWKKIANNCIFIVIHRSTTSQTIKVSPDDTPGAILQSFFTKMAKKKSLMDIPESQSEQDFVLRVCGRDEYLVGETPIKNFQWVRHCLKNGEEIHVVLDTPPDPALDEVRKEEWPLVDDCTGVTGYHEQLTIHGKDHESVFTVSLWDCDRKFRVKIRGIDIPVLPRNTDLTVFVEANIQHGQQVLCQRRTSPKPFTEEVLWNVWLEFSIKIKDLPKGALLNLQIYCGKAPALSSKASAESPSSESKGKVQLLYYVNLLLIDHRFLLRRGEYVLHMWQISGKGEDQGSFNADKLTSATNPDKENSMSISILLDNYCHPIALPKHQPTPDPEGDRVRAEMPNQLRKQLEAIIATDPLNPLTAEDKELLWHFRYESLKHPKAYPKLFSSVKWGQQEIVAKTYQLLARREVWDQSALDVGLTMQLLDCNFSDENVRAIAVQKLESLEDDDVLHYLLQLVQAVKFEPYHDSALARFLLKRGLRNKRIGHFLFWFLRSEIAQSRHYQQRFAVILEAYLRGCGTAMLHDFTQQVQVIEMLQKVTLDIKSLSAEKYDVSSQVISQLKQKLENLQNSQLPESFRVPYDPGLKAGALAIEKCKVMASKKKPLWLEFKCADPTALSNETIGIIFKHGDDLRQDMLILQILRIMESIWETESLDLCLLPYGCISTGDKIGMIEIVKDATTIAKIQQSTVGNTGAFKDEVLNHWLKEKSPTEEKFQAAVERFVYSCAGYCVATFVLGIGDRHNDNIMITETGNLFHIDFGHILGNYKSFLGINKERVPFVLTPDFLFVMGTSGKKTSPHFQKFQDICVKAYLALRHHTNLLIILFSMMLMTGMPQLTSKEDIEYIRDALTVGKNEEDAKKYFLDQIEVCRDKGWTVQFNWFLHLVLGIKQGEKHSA
From the text: The TR-FRET Adapta™ Universal Kinase Assay Kit was purchased from Invitrogen
Corporation (Carlsbad/CA, USA) (Cat. No. PV5099). The kit contains the following reagents: Adapta Eu-anti-ADP Antibody (Europium labeled anti-ADP antibody in HEPES buffered saline, Cat. No. PV5097), Alexa Fluor® 647-labeled ADP tracer (Alexa Fluor® 647-labeled ADP tracer in HEPES buffered saline, Cat. No. PV5098), proprietary TR-FRET dilution buffer pH 7.5 (Cat. No. PV3574).
PIK3CD substrate Phosphatidylinositol was obtained from Invitrogen (vesicules consisting of 2 mM PI in 50 mM HEPES pH7.5; Cat. No. PV5371).
Time-Resolved Fluorescence Resonance Energy Transfer (TR-FRET) is a technology based on energy transfer between two adjacent dyes, from an excited electron in one dye (the donor) to an electron of an adjacent dye (the acceptor) through resonance, then released as a photon. This energy transfer is detected by an increase in the fluorescence emission of the acceptor, and a decrease in the fluorescence emission of the donor. TR-FRET assays for protein kinases use a long-lifetime lanthanide Terbium or Europium chelates as the donor species which overcome interference from compound autofluorescence or light scatter from precipitated compounds, by introducing a delay after excitation by a flashlamp excitation source. Results are often expressed as a ratio of the intensities of the acceptor and donor fluorophores. The ratiometric nature of such a value corrects for differences in assay volumes between wells, as well as corrects for quenching effects due to colored compounds. The Adapta™ assay can be divided into two phases: a kinase reaction phase and an ADP detection phase. In the kinase reaction phase, all kinase reaction components are added to the well and the reaction is allowed to incubate for a set period of time specific for each kinase. After the reaction, a detection solution of Eu-labeled anti-ADP antibody, Alexa Fluor® 647-labeled ADP tracer, and EDTA (to stop the kinase reaction) are added to the assay well. ADP formed by the kinase reaction will displace the Alexa Fluor® 647-labeled ADP tracer from the antibody, resulting in a decrease in TR-FRET signal. In the presence of an inhibitor, the amount of ADP formed by the kinase reaction is reduced, and the resulting intact antibody-tracer interaction maintains a high TR-FRET signal. In the Adapta™ assay, the donor (Europium-anti-ADP antibody) is excited at 340 nm and will transfer its energy to the acceptor (Alexa Fluor® 647-labeled ADP tracer). The emission from the Alexa Fluor® 647 can be monitored with a filter centered at 665 nm because it is located between the emission peaks of the donor, which is measured at 615/620 nm.
50 nL of compound dilutions were dispensed onto white 384-well small volume polystyrene plate as described in section 2.2. Then 5 μL of PI3Kg and PI3Kd and lipid substrate (PI or PIP2:PS) followed by 5 μL of ATP (final assay volume 10 μL) are incubated at RT. The standard reaction buffer for the Adapta™ TR-FRET assay contained 10 mM Tris-HCl pH 7.5, 3 mM MgCl2, 50 mM NaCl, 1 mM DTT, 0.05% CHAPS. Reactions were stopped with 5 μL of a mixture of EDTA containing the Eu-labeled anti-ADP antibody and the Alexa Fluor® 647-labeled ADP tracer in TR-FRET dilution buffer (proprietary to IVG). Plates are read 15 to 60 mins later in a Synergy2 reader using an integration time of 0.4 seconds and a delay of 0.05 seconds. […] The standard compound NVP-BGT226 was used as a reference compound and included in all assay plates in the form of 16 dilution points in duplicate.
Data are analyzed using Excel fit software or Graphpad Prism. EC50 values were derived by fitting a sigmoidal dose-response curve to a plot of assay readout over inhibitor concentration. All fits were performed with the program XLfit4 (ID Business Solutions, Guildford, UK). […] All fits were performed with the program XLfit4 (ID Business Solutions, Guildford, UK).
In the case of Nc1ncc(-c2cc(N3C(=O)O[C@@H](c4ccc(OCCCO)cc4)[C@@H]3CO)nc(N3CCOCC3)n2)c(C(F)(F)F)n1 [Example 14], the IC50 is reported as 27 nM.
Nc1ncc(-c2cc(N3C(=O)O[C@@H](c4ccccc4)[C@@H]3CO)nc(N3CCOCC3)n2)c(C(F)(F)F)n1 [Example 10] showed an IC50 of 343 nM.
COCCOc1ccc([C@@H]2OC(=O)N(c3cc(-c4cnc(N)nc4C(F)(F)F)nc(N4CCOCC4)n3)[C@H]2CO)cc1 [Example 12] showed an IC50 of 135 nM.
C[C@H]1[C@@H](c2nccs2)OC(=O)N1c1cc(-c2cnc(N)nc2C(F)(F)F)nc(N2CCOCC2)n1 [Example 11] showed an IC50 of 102 nM.
In the case of CC1C(c2cccnc2)OC(=O)N1c1cc(-c2cnc(N)nc2C(F)(F)F)nc(N2CCOCC2)n1 (stereo not drawn) [Example 9], the IC50 is reported as 230 nM.
For Nc1ncc(-c2cc(N3C(=O)O[C@@H](c4ccc(OCCO)cc4)[C@@H]3CO)nc(N3CCOCC3)n2)c(C(F)(F)F)n1 [Example 13], the IC50 was 100 nM.
CCC1C(c2cccnc2)OC(=O)N1c1cc(-c2cnc(N)nc2C(F)(F)F)nc(N2CCOCC2)n1 (stereo not drawn) [Example 8] gave an IC50 of 580 nM.
CC[C@H]1[C@H](c2nccs2)OC(=O)N1c1cc(-c2cnc(N)nc2C(F)(F)F)nc(N2CCOCC2)n1 [Example 7] gave an IC50 of 3000 nM.
COc1ccc([C@@H]2OC(=O)N(c3cc(-c4cnc(N)nc4C(F)(F)F)nc(N4CCOCC4)n3)[C@H]2CO)cc1 [Example 3, (4S,5S)-3-(2′-Amino-2-morpholino-4′-(trifluoromethyl)-[4,5′-bipyrimidin]-6-yl)-4-(hydroxymethyl)-5-(4-methoxyphenyl)oxazolidin-2-one] showed an IC50 of 110 nM.
With CC[C@H]1[C@H](c2ccc(OC)cc2)OC(=O)N1c1cc(-c2cnc(N)nc2C(F)(F)F)nc(N2CCOCC2)n1 (relative stereo) [Example 2, (4S*,5S*)-3-(2′-amino-2-morpholino-4′-(trifluoromethyl)-[4,5′-bipyrimidin]-6-yl)-4-ethyl-5-(4-methoxyphenyl)oxazolidin-2-one] the IC50 was 5800 nM.
C[C@H]1[C@H](c2ccccc2)OC(=O)N1c1cc(-c2cnc(N)nc2C(F)(F)F)nc(N2CCOCC2)n1 [Example 5] showed an IC50 of 3500 nM.
Molecule C[C@H]1[C@H](c2nccs2)OC(=O)N1c1cc(-c2cnc(N)nc2C(F)(F)F)nc(N2CCOCC2)n1 [Example 1, (4S,5R)-3-(2′-Amino-2-morpholin-4-yl-4′-trifluoromethyl-[4,5′]bipyrimidinyl-6-yl)-4-methyl-5-thiazol-2-yl-oxazolidin-2-one] has an IC50 of 92 nM.

From patent publication US10202371B2, “Oxazolidin-2-one-pyrimidine derivatives and the use thereof as phosphatidylinositol-3-kinase inhibitors” (Novartis AG, priority 2012, dated 2019)
